For this assay, the target named is T1, Vesicular acetylcholine transporter (Homo sapiens, UniProt Q16572).
T1 sequence (Q16572 whole entry): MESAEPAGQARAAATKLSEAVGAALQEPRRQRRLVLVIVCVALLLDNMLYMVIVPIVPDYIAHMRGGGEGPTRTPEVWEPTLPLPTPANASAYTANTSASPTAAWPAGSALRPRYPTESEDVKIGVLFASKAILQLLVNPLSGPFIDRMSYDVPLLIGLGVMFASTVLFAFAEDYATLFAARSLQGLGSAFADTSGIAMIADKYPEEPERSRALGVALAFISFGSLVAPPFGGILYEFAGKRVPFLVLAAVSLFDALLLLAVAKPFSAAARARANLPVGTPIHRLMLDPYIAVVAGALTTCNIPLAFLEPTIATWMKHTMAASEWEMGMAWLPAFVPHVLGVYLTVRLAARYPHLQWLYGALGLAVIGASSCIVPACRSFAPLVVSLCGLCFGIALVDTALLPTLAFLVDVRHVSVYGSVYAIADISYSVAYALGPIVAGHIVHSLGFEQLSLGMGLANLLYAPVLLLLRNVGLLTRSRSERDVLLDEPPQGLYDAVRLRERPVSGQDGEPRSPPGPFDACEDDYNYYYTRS
Put plainly: Displacement of [3H]vesamicol from human VAChT transfected in PC12 cell line. In kind it is cell-based, PC-12.

A value given as a limit tells only on which side of the number the result lay.

In turn, `C/C=C/CN1CCC(O)C(N2CCN(c3ccccc3)CC2)C1` (configuration not stated) showed an IC50 of over 100 nM. As for `C#CCN1CCC(O)C(N2CCN(c3ccccc3)CC2)C1` (configuration not stated), the IC50 was over 100 nM. Compound `C=CCN1CCC(N2CCN(c3ccccc3)CC2)C(O)C1` (configuration not stated) gave an IC50 of over 100 nM. Consider `C=C(C)CN1CCC(N2CCN(c3ccccc3)CC2)C(O)C1` (configuration not stated), for which the half-maximal inhibitory concentration (IC50) was over 100 nM. For `C=CCN1CCC(O)C(N2CCN(c3ccccc3)CC2)C1` (configuration not stated), the IC50 was over 100 nM. In the case of `OC1CCN(Cc2ccccc2Br)CC1N1CCN(c2ccccc2)CC1` (configuration not stated), the IC50 is 47 nM. As to `OC1CCN(C/C=C/I)CC1N1CCN(c2ccccc2)CC1` (configuration not stated), the IC50 is over 100 nM. As for `CCN1CCC(O)C(N2CCN(c3ccccc3)CC2)C1` (configuration not stated), the half-maximal inhibitory concentration (IC50) is over 1000 nM. Compound `OC1CN(Cc2ccccc2Br)CCC1N1CCN(c2ccccc2)CC1` (configuration not stated) gave a concentration for half-maximal inhibition (IC50) of 11 nM. `OC1CCN(Cc2cccc(Br)c2)CC1N1CCN(c2ccccc2)CC1` (configuration not stated): the IC50 is 46 nM. In the case of `OC1CN(Cc2cccc(Br)c2)CCC1N1CCN(c2ccccc2)CC1` (configuration not stated), the half-inhibitory concentration (IC50) came to 66 nM. Compound `C#CCN1CCC(N2CCN(c3ccccc3)CC2)C(O)C1` (configuration not stated) yielded an IC50 of over 1000 nM. Under `OC1CN(C/C=C/I)CCC1N1CCN(c2ccccc2)CC1` (configuration not stated) stands over 100 nM; under `C/C=C/CN1CCC(N2CCN(c3ccccc3)CC2)C(O)C1` (configuration not stated), 100 nM.

Take `OC1CCN(Cc2ccc(Br)cc2)CC1N1CCN(c2ccccc2)CC1` (configuration not stated): the IC50 is over 100 nM. In turn, `OC1CN(Cc2ccccc2)CCC1N1CCN(c2ccccc2)CC1` (configuration not stated) had a 50% inhibitory concentration (IC50) of 57 nM. As for `OC1CCNCC1N1CCN(c2ccccc2)CC1` (configuration not stated), the figure is over 100 nM.

Consider `OC1CCN(Cc2ccccc2)CC1N1CCN(c2ccccc2)CC1` (configuration not stated), for which the 50% inhibitory concentration (IC50) is over 100 nM. Regarding `OC1CNCCC1N1CCN(c2ccccc2)CC1` (configuration not stated), the IC50 is 100 nM. Turning to `OC1CN(Cc2ccc(Br)cc2)CCC1N1CCN(c2ccccc2)CC1` (configuration not stated), the IC50 is over 100 nM. `CCN1CCC(N2CCN(c3ccccc3)CC2)C(O)C1` (configuration not stated): the half-maximal inhibitory concentration (IC50) is over 1000 nM. Under `C=C(C)CN1CCC(O)C(N2CCN(c3ccccc3)CC2)C1` (configuration not stated) stands over 100 nM.

By IC50 is commonly meant the concentration at which inhibition is half-maximal. Read a high IC50 as lower potency.

The values are drawn from ChEMBL document CHEMBL1147695, “Synthesis and in vitro evaluation of N-substituted aza-trozamicol analogs as vesicular acetylcholine transporter ligands” (Bioorg Med Chem Lett, 2006).
